Test [1] concerns A375 cells. In words: Annexin V/PI flow cytometry apoptosis, A375. The following applies: 0, 50, 100, 200 μM, 48 h. The test is classed as cell-based. How it is done: In this study, cell apoptosis was analyzed by flow cytometry using a PI/FITC-Annexin V Apoptosis Detection Kit (4A Biotech, Beijing, China). Briefly, melanoma cells were collected and washed with pre-chilled PBS, then resuspended with Annexin V staining buffer. Afterward, fluorescein isothiocyanate (FITC)-Annexin V and PI were stained for 5 min at RT, and then immediately detected using a Beckman flow cytometer. To investigate immune cell infiltration of the lung and spleen in the pulmonary metastasis mouse model, the surface and nuclear antigen staining were performed following the experimental procedure. Fluorescence-labeled mAb against CD3, CD25, CD49b, GranzymeB, CD11b, CD86, and CD206 were purchased from BioLegend (BioLegend, San Diego, CA), and CD4, CD8, and Foxp3 from Tonbo. […] Finally, the samples were measured using flow cytometry.
Fig. 3 Biopanning of PDPN antagonist peptides. […] B Immunofluorescence staining was performed to quantify the colocalization of CY12-RP2 and PDPN protein in melanoma cell lines (A375, A875). […] D Suppression efficiency of melanoma cells growth by CY12-RP2 was measured by CCK8 assay at various concentrations for 24, 48 or 72 h, respectively. […] G, H The 3D cellular spheres were treated with the set concentrations of CY12-RP2 for 5 days and cell morphology was assessed (G), relative spheroid diameter was measured (H). […]
A general note: In flow cytometry, cells or beads pass a laser one at a time.

For test [2], the system named is Wnt/β-catenin signaling pathway. In words: Western blot, EMT and Wnt/β-catenin pathway, melanoma cells. The test is classed as cell-based. The following applies: melanoma cells treated with peptide. On the procedure:
Melanoma cells were cultured in a 60 mm dish with a complete medium and various peptide concentrations (0 μM, 5 μM, 25 μM). Protein was extracted after cells were cultured or treated for 48 h using protein lysis buffer, separated using a 10% or 15% Bis–Tris PAGE gel (Epizyme Biomedical Technology, Shanghai, China), and transferred onto a PVDF membrane (Thermo Fisher Scientific) according to standard techniques. The Western blots were imaged using Bio-rad Chemidoc MP and quantified using ImageJ software (NIH).
Fig. S4: The inhibition of cells metastasis and invasion by CY12-RP2 can be […]
(A, B) The inhibition of CY12-RP2 on the migration capacity of melanoma cell lines was reversed by SKL2001 (A). Statistical analysis was performed to determine the migrated distance (B). The power field scale bar, 100 μm. (C, D) Effect of CY12-RP2 on the invasive ability of melanoma cell lines were reversed by SKL2001 (C). […]
(A) TUNEL analysis of apoptosis was conducted on orthotopic xenografts tumor sections using fluorescence staining. […] (B) Fluorescence staining of Ki67 was carried out on orthotopic xenograft tumor sections.
The power field scale bar, 100 μm. (C) Serum His-CY12-RP2 levels of the orthotopic xenografts mice treated by various dosage of CY12-RP2 were measured by His-ELISA kit. […]
kit. (E) Serum ALT, AST, TG, and γ-GT levels of the orthotopic xenografts model were measured by ELISA. […]
For orientation: Immunoblotting shows a protein as a band on a membrane.

The test system of test [3] is immune cells in lungs and spleens. Kind of test: Immunofluorescence of immune cell infiltration, spleen and lung, lung metastasis model. The test is classed as in vivo, BALB/c mice. How it is done: Immunofluorescence analysis was used for antigen localization and quantification. For PDPN immunofluorescence staining, melanoma cells (A375, A875) were seeded in coverslips, cultured for 24 h, and fixed using 4% paraformaldehyde for 15 min at room temperature (RT). The cells were then permeabilized with 0.2% Triton X-100 in PBS for 10 min. Cells were blocked using 1% bovine serum albumin (BSA) in PBS for 30 min at RT, and incubated with the primary antibody overnight at 4 ℃. Afterwards, cells were washed three times with PBS containing 0.01% Triton X-100 for 5 min, and incubated with Alexa Fluor 568–conjugated secondary antibodies at RT for 1 h. Lastly, the nuclei were dyed with 4’,6-diamidino-2-phenylindole (DAPI) for 5 min at RT, and the slides were imaged using a NIKON laser scanning confocal microscope. To further verify the specificity binding ability of CY12-RP2 with PDPN, immunofluorescence was detected for analysis in melanoma cells. Briefly, A375 or A875 cells were incubated with CY12-RP2 at a concentration of 5 μM for 10 h at 37 ℃, and then washed with DMEM to remove the unbound peptide. The anti-PDPN primary antibody was then incubated for 4 h at RT. Further experimental procedures were performed as described above. To determine the immune cell infiltration and proportion changes in the lungs and spleens in the pulmonary metastasis mouse model, sequential frozen slices (12 μm) were prepared and incubated with CD3, CD4, CD8, Foxp3, CD56, F4/80, and CD11c primary antibodies for 1 h, and then incubated with Alexa Fluor 488-conjugated goat anti-mouse F(ab’)2 and Alexa Fluor 647-conjugated goat anti-mouse F(ab’)2 in PBS containing 1% BSA and 1% goat serum for 30 min. All incubations were conducted under coverslips at RT, and then repeatedly washed 3 times with PBS. Coverslips were mounted after staining cell nuclei with DAPI, and imaged using a NIKON laser scanning confocal microscope.

The structures appear in SMILES notation. Peptide text beside a SMILES is read from it.

Take `CC(C)C[C@H](NC(=O)[C@H](Cc1ccc(O)cc1)NC(=O)[C@@H](N)[C@@H](C)O)C(=O)N[C@@H](CS)C(=O)N[C@H](C(=O)N[C@@H](C)C(=O)N[C@@H](CS)C(=O)N[C@@H](CC(=O)O)C(=O)N[C@@H](Cc1ccc(O)cc1)C(=O)N[C@H](C(=O)N[C@@H](Cc1c[nH]cn1)C(=O)N[C@@H](Cc1c[nH]cn1)C(=O)O)[C@@H](C)O)[C@@H](C)O` [CY12-RP2] (H-TYLCTACDYTHH-OH; N-terminus and C-terminus assumed): in test [1], the apoptosis rate result was “significantly up-regulated by CY12-RP2 in a dose-dependent manner”. Moreover, the Wnt/β-catenin pathway result in test [2] is reported as “could inhibit the Wnt/β-catenin pathway”. Also, in test [3] (immunofluorescence), the M2-type macrophages entry is reported as “decreased proportion”; the “NK cells and M1-type macrophages” value is listed as “increased proportions”. In test [3] (multiplex immunofluorescence), the “infiltration of CD3 + CD4 + T cells and CD3 + CD8 + T cells” value was “remarkable increase”; the “infiltration of Treg cells” value is recorded as “reduction”.

The values are drawn from paper PMC10759609, “A novel PDPN antagonist peptide CY12-RP2 inhibits melanoma growth via Wnt/β-catenin and modulates the immune cells” (Journal of Experimental & Clinical Cancer Research : CR, 2024).
